Here are results for three molecules from ChEMBL document CHEMBL3352537 (Bioorg Med Chem Lett, 2014).

Data set [1] is described as follows: Antioxidant activity assessed as superoxide anion radical scavenging activity at 5 to 20 uM by xanthine/xanthine oxidase assay. Format: physicochemical.
The nature of data set [2]: Antioxidant activity assessed as DPPH scavenging activity at 5 to 20 uM after 15 mins by UV-visible spectrophotometry. Format: physicochemical. A general note: The DPPH test is a chemical assay of radical scavenging.
The target of data set [3] is Transcription factor p65 (Homo sapiens) (UniProt Q04206). Put plainly: Inhibition of LPS-induced NF-kappaB p65 activation in human THP1 cells preincubated at 10 uM for 15 mins before LPS treatment measured after 16 hrs. It counts as cell-based. As to conditions: THP-1; call rule not given here.
The target of data set [4] is Prostaglandin G/H synthase 1 (Homo sapiens) (UniProt P23219). Put plainly: Inhibition of COX1 (unknown origin) using arachidonic acid as substrate at […] after 10 mins by luminometry.

SMILES strings stand for the structures.

The inhibition is the change of the read-out against control, counted positive when it falls. Low values mean a response near the control, high ones a response far below the control.

Prostaglandin G/H synthase 1 (Homo sapiens), sequence (P23219 whole entry): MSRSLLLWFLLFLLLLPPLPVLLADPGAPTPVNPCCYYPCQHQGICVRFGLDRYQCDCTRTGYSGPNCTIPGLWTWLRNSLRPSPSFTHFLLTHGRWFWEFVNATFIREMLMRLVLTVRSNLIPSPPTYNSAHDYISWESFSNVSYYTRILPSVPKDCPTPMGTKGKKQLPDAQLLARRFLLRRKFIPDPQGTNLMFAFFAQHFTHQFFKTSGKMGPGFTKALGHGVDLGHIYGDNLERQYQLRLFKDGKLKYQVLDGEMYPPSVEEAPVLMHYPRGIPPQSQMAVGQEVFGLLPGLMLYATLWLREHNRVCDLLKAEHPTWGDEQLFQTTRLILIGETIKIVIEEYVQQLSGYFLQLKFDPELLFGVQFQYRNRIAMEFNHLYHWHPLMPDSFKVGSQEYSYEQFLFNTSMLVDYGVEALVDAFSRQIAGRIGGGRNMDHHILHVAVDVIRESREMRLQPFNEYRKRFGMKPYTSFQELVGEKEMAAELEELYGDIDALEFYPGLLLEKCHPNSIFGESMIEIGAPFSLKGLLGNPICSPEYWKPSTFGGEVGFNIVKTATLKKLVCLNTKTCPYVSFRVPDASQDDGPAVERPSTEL
Transcription factor p65 (Homo sapiens), sequence (Q04206 whole entry): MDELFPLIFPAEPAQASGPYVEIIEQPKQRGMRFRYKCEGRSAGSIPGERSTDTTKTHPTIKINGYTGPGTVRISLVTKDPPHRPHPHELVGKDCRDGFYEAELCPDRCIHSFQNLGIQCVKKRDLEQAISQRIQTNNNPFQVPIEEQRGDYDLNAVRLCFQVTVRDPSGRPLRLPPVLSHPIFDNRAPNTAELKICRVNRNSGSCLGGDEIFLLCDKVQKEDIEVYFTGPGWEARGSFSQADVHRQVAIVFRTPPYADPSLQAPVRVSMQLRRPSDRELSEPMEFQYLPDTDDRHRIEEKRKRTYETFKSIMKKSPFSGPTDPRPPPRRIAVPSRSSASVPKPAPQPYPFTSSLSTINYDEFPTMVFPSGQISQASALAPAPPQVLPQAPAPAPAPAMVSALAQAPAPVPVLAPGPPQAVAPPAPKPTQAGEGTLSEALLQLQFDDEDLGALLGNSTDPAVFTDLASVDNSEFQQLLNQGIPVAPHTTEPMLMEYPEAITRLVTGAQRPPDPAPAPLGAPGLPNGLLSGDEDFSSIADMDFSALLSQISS

With `Oc1ccc(CCNCc2ccc(O)c(O)c2)cc1`, the results for the Activity in data set [1] and in data set [2] were 33% and “Active”, respectively. The inhibition in data set [3] turned out to be 23%; in data set [4], 51%.

As to `COc1cc(C(=O)O)ccc1O` [VANILLIC ACID], in data set [2], the outcome was Active.

In the case of `O=C(O)c1ccc(O)cc1` [PARABEN], in data set [2], the result was Active.
